# From patent publication US20200163984A1, “USE OF ISOVALERYL SPIRAMYCIN I, II AND/OR III IN MANUFACTURING MEDICAMENT FOR TREATING AND/OR PREVENTING TUMOR, AND MEDICAMENT” (SHENYANG FUYANG PHARMACEUTICAL TECHNOLOGY CO., LTD., priority 2017, published 2020)
# Where two headings read alike, the source gives them in different places.
# Assays:
# [1] = system: human bladder cancer cell T-24; settings: T-24, MTT
# Text: (§1) The purpose of the assay is to evaluate the in vitro cell proliferation inhibition or cytotoxic activity of a tested sample.
# (§2) Human breast cancer cells MCF-7 and MDA-MB-231, human hepatoma cells HepG2, human non-small cell lung cancer cells A549, human large cell lung cancer cells H460 and H1299, human renal clear cell adenocarcinoma cell 786-0, human renal cell adenocarcinoma cell 769-P, human glioma cell U251, human glioblastoma cell A172, human tissue lymphoma cell U937, human cervical cancer cell HeLa, human prostate cancer cell PC3, human pancreatic cancer cell PANC-1, human esophageal cancer cell TE-1, human gastric adenocarcinoma cell SGC7901, human colon cancer cell HT-29, human promyelocytic leukemia cell HL-60, human thyroid cancer cell TPC-1, and human bladder cancer cell T-24.
# (§3) The inhibition rate of the medicament on tumor cell growth is calculated according to the following formula:
# (§4) Tumor cell growth inhibition rate (%)=[A492 (negative control)−A492 (dosing group)]/A492 (negative control)×100%
# (§5) And the half-inhibitory concentration (IC50) of the sample is determined therefrom.
# [2] = system: human thyroid cancer cell TPC-1; settings: TPC-1, MTT
# Text: as §1, §2, §3, §4, §5
# [3] = system: transplanted tumor of human prostate cancer cell PC3; test: PC3 transplanted tumor in nude mice
# Procedure: (§6) Then cell concentration was adjusted to 1×10^7/ml with matrigel, then each nude mouse was inoculated subcutaneously with 0.2 ml of cells at its right armpit and recorded as the first day of inoculation. When the tumor grows to be greater than or equal to 100 mm^3, the mice were randomly divided into 11 groups with 6 mice in each group: a model group, a cyclophosphamide group, isovaleryl spiramycin I groups with doses of 25, 50 and 100 mg/kg, isovaleryl spiramycin II groups with doses of 25, 50 and 100 mg/kg, and isovaleryl spiramycin III groups with doses of 25, 50 and 100 mg/kg. Each group was continuously administered intragastrically for 30 days with a dose of 20 ml/kg. The mice were sacrificed the next day after drug withdrawal and the indicators were tested. The long diameter and short diameter of the tumor, and the body weight of each mouse were recorded every 3 days from drug administration to nude mouse sacrifice.
# (§7) The body weight of the nude mice and the long diameter (a) and short diameter (b) of the transplanted tumor were measured every 3 days, and the tumor volume (v), relative tumor volume (RTV) and relative tumor proliferation rate (T/C) are calculated respectively according to the following formulas, wherein V=a×b^2/2; RTV=V/V0 (V0 is the tumor volume before administration, V is the tumor volume before sacrifice), and T/C (%)=treatment group RTV/model control group RTV×100%.
# (§8) Each mouse was weighed and sacrificed. After the tumor was completely stripped off from the body of the mouse, the non-tumor tissues such as blood stains and fat were removed to weigh the tumor and calculate the tumor growth inhibition rate. The average tumor weight of each group of mice is used as an indicator of efficacy. Tumor growth inhibition rate (%)=(1−the average tumor weight of the treatment group/the average tumor weight of the model group)×100%.
# [4] = system: transplanted tumor of human breast cancer cell MCF-7; test: MCF-7 transplanted tumor in nude mice
# Procedure: as §6, §7, §8
# [5] = system: transplanted tumor of human glioblastoma cell A172; settings: for Tumor Volume (mm3) (d 1): d1
# Outline: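 Nude mice bearing subcutaneous A172 xenografts (cells in matrigel) randomized at ≥100 mm^3, 6 per group; isovaleryl spiramycin I, II or III at 25, 50 or 100 mg/kg given intragastrically for 30 days, temozolomide as comparator. Endpoints: RTV-based T/C (%) and tumor-weight inhibition at sacrifice.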
# [6] = PC3, 25 mg/kg (low dose) i.g. 30 days
# [7] = PC3, 50 mg/kg (medium dose) i.g. 30 days
# [8] = PC3, 100 mg/kg (high dose) i.g. 30 days
# [9] = MCF-7, 25 mg/kg (low dose) i.g. 30 days
# [10] = MCF-7, 50 mg/kg (medium dose) i.g. 30 days
# [11] = MCF-7, 100 mg/kg (high dose) i.g. 30 days
# [12] = A172, high dose (100 mg/kg in method) i.g. 30 days
# [13] = A172, low dose (25 mg/kg in method) i.g. 30 days
# [14] = A172, medium dose (50 mg/kg in method) i.g. 30 days
compound,measurement,setting,value
"CCC(=O)O[C@@H]1CC(=O)O[C@H](C)C/C=C/C=C/[C@H](O[C@H]2CC[C@H](N(C)C)[C@@H](C)O2)[C@H](C)C[C@H](CC=O)[C@H](O[C@@H]2O[C@H](C)[C@@H](O[C@H]3C[C@@](C)(O)[C@@H](OC(=O)CC(C)C)[C@H](C)O3)[C@H](N(C)C)[C@H]2O)[C@H]1OC [Isovaleryl spiramycin III, isovaleryl spiramycin III]",IC50,[1],31.23 ± 1.47 µg/mL
same,IC50,[2],29.72 ± 4.02 µg/mL
same,Inhibition Rate (tumor growth inhibition rate),[3]; [6],25.43%
same,Relative Tumor Proliferation Rate (T/C),[3]; [6],75.75%
same,Relative Tumor Volume (RTV),[3]; [6],14.82 ± 7.55
same,Tumor Volume (d 1),[3]; [6],146.91 ± 6.70 mm3
same,Tumor Volume (d 30),[3]; [6],1914.85 ± 729.54 mm3
same,Tumor Weight,[3]; [6],1.40 ± 0.54 g
same,Inhibition Rate (tumor growth inhibition rate),"[3]; PC3, 25 mg/kg (low dose) i.g. 30 days, listed as isovaleryl spiramycin III",25.44%
same,Inhibition Rate (tumor growth inhibition rate),[3]; [7],40.16%
same,Relative Tumor Proliferation Rate (T/C),[3]; [7],55.01%
same,Relative Tumor Volume (RTV),[3]; [7],10.76 ± 2.24
same,Tumor Volume (d 1),[3]; [7],187.01 ± 50.28 mm3
same,Tumor Volume (d 30),[3]; [7],1935.79 ± 228.06 mm3
same,Tumor Weight,[3]; [7],1.12 ± 0.45 g
same,Relative Tumor Proliferation Rate (T/C),"[3]; PC3, 50 mg/kg (medium dose) i.g. 30 days, listed as isovaleryl spiramycin III",55.02%
same,Inhibition Rate (tumor growth inhibition rate),[3]; [8],60.37%
same,Relative Tumor Proliferation Rate (T/C),[3]; [8],34.57%
same,Relative Tumor Volume (RTV),[3]; [8],6.76 ± 1.61
same,Tumor Volume (d 1),[3]; [8],155.11 ± 7.98 mm3
same,Tumor Volume (d 30),[3]; [8],1051.03 ± 272.23 mm3
same,Tumor Weight,[3]; [8],0.75 ± 0.25 g
same,tumor volume and relative tumor volume compared with the model group,"[3]; PC3, low, medium and high doses, P<0.05",significantly lower
same,mouse weight compared with the model group,"[3]; mouse, in vivo",no significant changes
same,Inhibition Rate (tumor growth inhibition rate),[4]; [9],26.75%
same,Relative Tumor Proliferation Rate (T/C),[4]; [9],75.03%
same,Relative Tumor Volume (RTV),[4]; [9],13.13 ± 3.15
same,Tumor Volume (d 1),[4]; [9],137.99 ± 20.99 mm3
same,Tumor Volume (d 30),[4]; [9],1758.49 ± 129.06 mm3
same,Tumor Weight,[4]; [9],1.99 ± 0.81 g
same,Inhibition Rate (tumor growth inhibition rate),[4]; [10],39.09%
same,Relative Tumor Proliferation Rate (T/C),[4]; [10],54.92%
same,Relative Tumor Volume (RTV),[4]; [10],9.61 ± 1.66
same,Tumor Volume (d 1),[4]; [10],109.95 ± 13.42 mm3
same,Tumor Volume (d 30),[4]; [10],1043.33 ± 113.01 mm3
same,Tumor Weight,[4]; [10],1.66 ± 0.66 g
same,Inhibition Rate (tumor growth inhibition rate),"[4]; MCF-7, 50 mg/kg (medium dose) i.g. 30 days, listed as isovaleryl spiramycin III",39.08%
same,Inhibition Rate (tumor growth inhibition rate),[4]; [11],61.78%
same,Relative Tumor Proliferation Rate (T/C),[4]; [11],34.90%
same,Relative Tumor Volume (RTV),[4]; [11],5.17 ± 0.64
same,Tumor Volume (d 1),[4]; [11],113.14 ± 9.02 mm3
same,Tumor Volume (d 30),[4]; [11],684.21 ± 115.00 mm3
same,Tumor Weight,[4]; [11],1.03 ± 0.54 g
same,Relative Tumor Proliferation Rate (T/C),"[4]; MCF-7, 100 mg/kg (high dose) i.g. 30 days, listed as isovaleryl spiramycin III",34.91%
same,tumor volume and relative tumor volume compared with the model group,"[4]; MCF-7, low, medium and high doses, P<0.05",significantly lower
same,mouse weight compared with the model group,"[4]; mouse, in vivo",no significant changes
same,Relative Tumor Proliferation Rate (T/C),[5]; [12],40.08%
same,tumor growth inhibition rate,[5]; [12],59.19%
same,Relative Tumor Proliferation Rate (T/C),[5]; [13],66.45%
same,tumor growth inhibition rate,[5]; [13],15.35%
same,tumor volume and relative tumor volume compared with the model group,"[5]; A172, low, medium and high doses, P<0.05",significantly lower
same,Relative Tumor Proliferation Rate (T/C),[5]; [14],52.89%
same,tumor growth inhibition rate,[5]; [14],32.54%
same,Inhibition Rate (%),"[5]; A172 nude mice, 12.5 mg/kg",15.35%
same,Relative Tumor Proliferation Rate (T/C),"[5]; A172 nude mice, 12.5 mg/kg",66.45%
same,Relative Tumor Volume (RTV),"[5]; A172 nude mice, 12.5 mg/kg",13.47 ± 1.67
same,Tumor Weight,"[5]; A172 nude mice, 12.5 mg/kg",1.18 ± 0.11 g
same,Tumor Volume (mm3) (d 1),"[5]; A172 nude mice, 12.5 mg/kg",121.75 ± 9.98 mm3
same,Tumor Volume (mm3) (d30),"[5]; A172 nude mice, 12.5 mg/kg",1305.51 ± 212.02 mm3
same,Inhibition Rate (%),"[5]; A172 nude mice, 25 mg/kg",32.54%
same,Relative Tumor Proliferation Rate (T/C),"[5]; A172 nude mice, 25 mg/kg",52.89%
same,Relative Tumor Volume (RTV),"[5]; A172 nude mice, 25 mg/kg",12.63 ± 1.27
same,Tumor Weight,"[5]; A172 nude mice, 25 mg/kg",0.94 ± 0.12 g
same,Tumor Volume (mm3) (d 1),"[5]; A172 nude mice, 25 mg/kg",118.81 ± 8.97 mm3
same,Tumor Volume (mm3) (d30),"[5]; A172 nude mice, 25 mg/kg",1047.77 ± 165.77 mm3
same,Inhibition Rate (%),"[5]; A172 nude mice, 50 mg/kg",59.19%
same,Relative Tumor Proliferation Rate (T/C),"[5]; A172 nude mice, 50 mg/kg",40.08%
same,Relative Tumor Volume (RTV),"[5]; A172 nude mice, 50 mg/kg",10.96 ± 0.82
same,Tumor Weight,"[5]; A172 nude mice, 50 mg/kg",0.57 ± 0.05 g
same,Tumor Volume (mm3) (d 1),"[5]; A172 nude mice, 50 mg/kg",118.44 ± 6.21 mm3
same,Tumor Volume (mm3) (d30),"[5]; A172 nude mice, 50 mg/kg",795.73 ± 174.84 mm3
same,mouse weight compared with the model group,"[5]; mouse, in vivo",no significant changes
same,Body Weight (g) (d1),"[5]; mouse, in vivo, 12.5 mg/kg",21.54 ± 0.36 g
same,Body Weight (g) (d30),"[5]; mouse, in vivo, 12.5 mg/kg",20.64 ± 0.54 g
same,Body Weight (g) (d1),"[5]; mouse, in vivo, 25 mg/kg",20.98 ± 0.47 g
same,Body Weight (g) (d30),"[5]; mouse, in vivo, 25 mg/kg",21.54 ± 0.72 g
same,Body Weight (g) (d1),"[5]; mouse, in vivo, 50 mg/kg",21.59 ± 0.32 g
same,Body Weight (g) (d30),"[5]; mouse, in vivo, 50 mg/kg",20.67 ± 0.56 g
